Measured values published in PMC4610306 (Journal of Medicinal Chemistry, 2015).
“Also recorded” adds a separate entry of the source.

What was measured:
PAD2 = PAD2 (Homo sapiens, UniProt Q9Y2J8); test: Inactivation kinetics; type: biochemical
mouse neutrophils = test: NET formation, PMA-stimulated neutrophils, DNA/neutrophil elastase overlap assay; type: cell-based; details: Cl-amidine as reference
U2OS cells = test: Cell viability, colorimetric XTT assay; type: cell-based, human
[1] = Murine hepatic microsome stability assay; type: in vitro ADME, mouse

Sequence of PAD2 (Q9Y2J8 whole entry): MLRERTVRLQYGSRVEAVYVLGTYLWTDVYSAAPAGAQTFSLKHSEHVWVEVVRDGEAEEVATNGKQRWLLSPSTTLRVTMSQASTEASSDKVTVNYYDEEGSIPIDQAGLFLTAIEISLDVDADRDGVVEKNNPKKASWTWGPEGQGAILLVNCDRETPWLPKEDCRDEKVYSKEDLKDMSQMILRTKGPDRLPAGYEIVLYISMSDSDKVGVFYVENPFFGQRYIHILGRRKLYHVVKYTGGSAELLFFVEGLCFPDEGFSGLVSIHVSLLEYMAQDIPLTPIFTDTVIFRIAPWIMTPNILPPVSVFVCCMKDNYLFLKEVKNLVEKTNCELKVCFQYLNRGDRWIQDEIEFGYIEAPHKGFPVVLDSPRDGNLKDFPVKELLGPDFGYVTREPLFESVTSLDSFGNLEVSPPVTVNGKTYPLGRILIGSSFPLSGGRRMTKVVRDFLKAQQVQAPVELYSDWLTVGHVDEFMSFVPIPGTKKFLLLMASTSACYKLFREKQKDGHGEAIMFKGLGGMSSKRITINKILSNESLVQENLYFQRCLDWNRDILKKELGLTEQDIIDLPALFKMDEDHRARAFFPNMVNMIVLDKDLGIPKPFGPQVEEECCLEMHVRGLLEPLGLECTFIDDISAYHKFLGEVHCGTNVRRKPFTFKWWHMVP

| Compound | kinact/KI (PAD2) | inhibition of NET formation (mouse neutrophils) | EC50 improvement over parent compound Cl-amidine (U2OS cells) | other results |
| --- | --- | --- | --- | --- |
| CC(C)(C)n1nnc([C@H](CCCNC(=N)CCl)NC(=O)c2ccccc2)n1 [Compound 6, tetrazole tert-butyl Cl-amidine] | 125 M⁻¹ s⁻¹ |  |  |  |
| CC(C)(C)n1nnc([C@H](CCCNC(=N)CF)NC(=O)c2ccccc2)n1 [Compound 7, tetrazole tert-butyl-F-amidine] | 108 M⁻¹ s⁻¹ |  |  |  |
| CC(C)(C)n1nnc([C@H](CCCNC(=N)CCl)NC(=O)c2ccc(-c3ccccc3)cc2)n1 [Compound 13, biphenyl tetrazole tert-butyl Cl-amidine] |  | significantly more potent than Cl-amidine; also recorded: significantly reduces NET formation compared to Cl-amidine | 16 fold | effect on cell growth / cell viability (U2OS cells; 20 μM, 72 h, XTT): completely abolished cell growth; also recorded: completely abolishes the growth |
| CC(C)(C)n1nnc([C@H](CCCNC(=N)CF)NC(=O)c2ccc(-c3ccccc3)cc2)n1 [Compound 14, biphenyl tetrazole tert-butyl-F-amidine] |  |  | 3.5 fold |  |
| CC(C)(C)n1nnc([C@H](CCCNC(=N)CCl)NC(=O)c2ccccc2C(=O)O)n1 [Compound 21, o-carboxyl tetrazole tert-butyl Cl-amidine] |  | inhibits NET formation only at very high concentrations; also recorded: inhibits NET formation at higher doses |  | stability / half-life in mouse hepatic microsomes [1]: half-life mimics those obtained for the fluoro analogs |
| N=C(CF)NCCC[C@H](NC(=O)c1ccccc1)C(N)=O [F-amidine, reference compound] | 6.33 M⁻¹ s⁻¹ |  |  |  |
